From ChEMBL document CHEMBL1139221, “2-(4-Chlorobenzyl)-3-hydroxy-7,8,9,10-tetrahydrobenzo[H]quinoline-4-carboxylic acid (PSI-697): identification of a clinical candidate from the quinoline salicylic acid series of P-selectin antagonists” (J Med Chem, 2007) come the findings set out here.

Each structure is given as a SMILES string. pIC50: −log10 of the molar value. Values after ≈ are worked out from the molar mass of the structure shown.

In general, inhibition refers to the drop in the measured response relative to a control, in per cent. A higher inhibition goes with strong suppression. The half-life is the time in which the quantity being followed falls by half. What is called pIC50 is the negative decadic logarithm of the IC50, by convention in mol/L. Lower therefore signals a high IC50. Broadly, the inhibition in vivo is the share of the control response that was lost under treatment. A high value points to strong suppression. As a reminder, the bioavailability is the share of a dose that reaches the circulation, judged against a reference dose that is usually intravenous. Higher therefore signals much systemic uptake. The term solubility denotes how much of the substance goes into solution per volume. A low value points to a poorly soluble substance.

Data set [1] deals with T1, P-selectin (Homo sapiens) (UniProt P16109).
T1 sequence (whole entry): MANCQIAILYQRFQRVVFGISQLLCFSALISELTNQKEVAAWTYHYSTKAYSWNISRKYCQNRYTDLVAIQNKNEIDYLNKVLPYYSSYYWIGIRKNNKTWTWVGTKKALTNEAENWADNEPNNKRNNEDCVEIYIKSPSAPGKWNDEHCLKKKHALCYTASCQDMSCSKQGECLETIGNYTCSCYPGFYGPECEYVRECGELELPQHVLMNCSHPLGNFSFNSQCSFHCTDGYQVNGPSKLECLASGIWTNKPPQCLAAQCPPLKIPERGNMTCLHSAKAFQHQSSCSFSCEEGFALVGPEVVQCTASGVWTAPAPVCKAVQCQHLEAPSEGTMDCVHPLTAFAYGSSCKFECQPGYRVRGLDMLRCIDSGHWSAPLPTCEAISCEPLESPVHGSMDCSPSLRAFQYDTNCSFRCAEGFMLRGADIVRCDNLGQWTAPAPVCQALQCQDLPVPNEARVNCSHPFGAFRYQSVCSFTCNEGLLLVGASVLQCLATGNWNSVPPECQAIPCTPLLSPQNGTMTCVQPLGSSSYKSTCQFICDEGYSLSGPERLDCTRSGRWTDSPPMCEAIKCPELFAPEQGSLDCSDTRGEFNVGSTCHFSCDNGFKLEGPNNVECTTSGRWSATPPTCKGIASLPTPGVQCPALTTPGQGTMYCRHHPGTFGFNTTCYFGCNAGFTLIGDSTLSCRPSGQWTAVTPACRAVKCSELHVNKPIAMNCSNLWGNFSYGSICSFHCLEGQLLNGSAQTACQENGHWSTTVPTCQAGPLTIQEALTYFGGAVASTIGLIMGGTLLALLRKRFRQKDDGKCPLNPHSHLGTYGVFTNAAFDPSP
Briefly: Inhibition of P-Selectin by Biacore assay at 250 uM. On the technique in general: In SPR one partner is held on a chip, and binding of the other changes the refractive index at the surface.

Data set [2] in a line: Stability in rat liver microsome. As to conditions: liver microsomes. It is filed as ADME. A general note: Liver microsomes are a subcellular fraction often used to study metabolism.
The target in a further data set is T2, P-selectin (Homo sapiens, UniProt P16109).
T2 sequence (P16109 whole entry): T1 sequence (whole entry)
Briefly: Inhibition of P-Selectin by Biacore assay.

The nature of data set [3]: Inhibition of leukocyte rolling in mouse at 50 mg/kg, po. It is filed as functional.
Data set [4] in a line: Bioavailability in Sprague-Dawley rat. As to conditions: in vivo. The class given is ADME, organism-based.
Data set [5] is described as follows: Bioavailability in C57 mouse. It is filed as ADME, organism-based. As to conditions: in vivo.
The species named for data set [6] is Mus musculus. Briefly: AUC in C57 mouse. As to conditions: in vivo. It is filed as ADME, organism-based, Plasma.
The test system of data set [7] is Mus musculus. The data set can be described thus: Inhibition of aortic lesion in apo E -/- mouse model at 100 mg/kg. As to conditions: Aorta. The class given is functional.
In data set [8] the test system is Rattus norvegicus. Briefly: Inhibition of neointimal hyperplasia in Sprague-Dawley rat carotid ballon injury model at 30 mg/kg, po. The class given is functional.
The species entered for data set [9] is Rattus norvegicus. Briefly: AUC in Sprague-Dawley rat. The class given is ADME, organism-based, Plasma. As to conditions: in vivo.
The nature of data set [10]: Oral bioavailability in Beagle dog at 15 mg/kg. As to conditions: in vivo. It is filed as ADME, organism-based, Canis lupus familiaris.
For data set [11], the target named is T1, P-selectin (Homo sapiens). The data set can be described thus: Inhibition of P-Selectin by Biacore assay at 500 uM.
Data set [12] is described as follows: Solubility at pH 7.4. It is filed as physicochemical. As to conditions: buffer.

In [1], `O=C(Nc1c(Cc2ccc(Cl)cc2)nc2c3c(ccc2c1C(=O)O)CCCC3)c1ccccc1` gave an inhibition of 19%.

Consider `O=C(O)c1c(O)c(Cc2ccccc2Cl)nc2c3c(ccc12)CCCC3`, for which the half-life in data set [2] worked out at 6 min. The negative logarithm of the IC50 (pIC50) against P-selectin is 3.91.

In turn, `O=C(O)c1c(O)c(Cc2c[nH]c3ccc(Cl)cc23)nc2c(C(F)(F)F)cccc12` gave an inhibition in vivo at 50 mg/kg in data set [3] of 23%. The compound also showed a negative logarithm of the IC50 (pIC50) against P-selectin of 3.60.

For the compound `O=C(O)c1c(O)c(Cc2cccc(Cl)c2)nc2c3c(ccc12)CCCC3`, the half-life in [2] was found to be 6 min. Moreover, on P-selectin, the negative-log IC50 (pIC50) is 3.86.

Consider `CC(=O)Nc1c(Cc2ccc(Cl)cc2)nc2c3c(ccc2c1C(=O)O)CCCC3`, for which, in [1], the inhibition is 10%.

Regarding `O=C(O)c1c(O)c(Cc2ccc(Cl)cc2)nc2c3c(ccc12)CCCC3` [PSI-697], the bioavailability in [4] came to 20%; in data set [5], 100%; in data set [10], 58%. Moreover, the inhibition in vivo at 50 mg/kg in [3] was 56%. Besides, at P-selectin, the pIC50 is 3.90. Besides, the figures for the AUC/dose in the data set filed under Mus musculus [6] and in the data set listed under Rattus norvegicus [9] were 1.5 µg·h/mL and 0.62 µg·h/mL, respectively. Moreover, the inhibition in vivo at 100 mg/kg in the data set on Mus musculus [7] was 49%. Also, in the data set with Rattus norvegicus [8], 30 mg/kg produced 40% inhibition in vivo.

Regarding `Nc1c(Cc2ccc(Cl)cc2)nc2c3c(ccc2c1C(=O)O)CCCC3`, the inhibition in [1] worked out at 15%.

Take `CC(C)C(=O)Oc1c(Cc2ccc(Cl)cc2)nc2c3c(ccc2c1C(=O)O)CCCC3`: the inhibition in [1] turned out to be 13%.

With `COc1c(Cc2ccc(Cl)cc2)nc2c3c(ccc2c1C(=O)O)CCCC3`, the inhibition in [1] worked out at 20%.

Take `O=C(O)c1c(O)c(Cc2ccc(Cl)cc2)nc2c(C(=O)O)cccc12`: the inhibition in data set [11] is 8%.

In the case of `O=C(O)c1c(O)c(Cc2c[nH]c3ccccc23)nc2c(OC(F)(F)F)cccc12`, the inhibition in data set [11] was 18%.

`CCc1cccc2c(C(=O)O)c(O)c(Cc3c[nH]c4ccccc34)nc12` had an inhibition in [11] of 19%.

Regarding `Cc1c(Cc2nc3c4c(ccc3c(C(=O)O)c2O)CCCC4)sc2ccccc12`, the inhibition in data set [11] came out at 22%.

For `O=C(O)c1c(O)c(Cc2c[nH]c3ccccc23)nc2c3c(ccc12)CCCC3`, the results for the bioavailability in data set [4] and in data set [5] were 41% and 30%, respectively. In data set [3], the inhibition in vivo at 50 mg/kg was 62%. Also, at P-selectin, the negative-log IC50 (pIC50) is 3.65. Moreover, the AUC/dose in the data set listed under Mus musculus [6] was found to be 0.218 µg·h/mL; in the data set listed under Rattus norvegicus [9], 0.607 µg·h/mL.

On to `O=C(O)c1c(O)c(Cc2c[nH]c3ccc(Cl)cc23)nc2c3c(ccc12)CCCC3`, for which the bioavailability in [4] amounted to 5%. The same compound gave a pIC50 against P-selectin of 3.76. In data set [12], this compound yielded a solubility of 20 µg/mL (≈ 49.2 µM). The compound also had an AUC/dose in the data set listed under Rattus norvegicus [9] of 0.096 µg·h/mL.

`O=C(O)c1c(O)c(Cc2ccc(Cl)cc2)nc2ccc(-c3ccccc3)cc12` returned an inhibition in data set [11] of 38%.
